Reference: US20250026741A1, “INHIBITORS OF THE ONCOGENIC SHP2 PHOSPHATASE AND USES THEREOF” (Sanford Burnham Prebys Medical Discovery Institute, priority 2021, published 2025)

What was measured:
[1] = target: SHP2-E76K (Homo sapiens (Human), UniProt Q06124, E76K); assay: Time-dependent inhibition (preincubation) assay; type: biochemical; details: preincubation 1, 5, 10, 20, or 60 min with SHP2-E76K
Experimental: PTPs contain a highly nucleophilic cysteine that is essential for catalytic activity, but is susceptible to oxidation and covalent modifications which abrogate its nucleophilic function and phosphatase activity. Because the methylenebenzothiophenone moiety of our inhibitors could potentially act as a Michael acceptor and thus covalently bind to the catalytic cysteine, we tested whether the observed inhibition of SHP2 was dependent on the preincubation time of inhibitor and enzyme. An irreversible covalent inhibitor may show time-dependent inhibition, with increased potency at longer incubation times. Conversely, the potency of a non-covalent inhibitor is expected to be insensitive to the time it is incubated with the enzyme. To test for time-dependent inhibition, #01 (#01) at 10 different concentrations was preincubated with SHP2-E76K for 1, 5, 10, 20, or 60 min, before the DiFMUP substrate was added to the reaction mixture and initial rates were recorded (FIG. 2C).

[2] = system: patient-derived AML cells; assay: Viability of AML patient-derived cells; type: cell-based, human; details: 10 μM, two patient samples, 2 d, 4 d, or 6 d
Excerpt: Patient-derived AML cells were obtained from Carol Burian and Dr. James Mason (Scripps MD Anderson, La Jolla, CA) under approved IRB protocol 13-6180. Peripheral blood mononuclear cells (PBMCs) were isolated by traditional Ficoll-Paque™ PLUS (17-1440-02, GE Healthcare) centrifugation according to the manufacturer's instructions, and red blood cells were lysed using RBC Lysis Buffer (Alfa Aesar, cat. #J62990). Final PBMCs were resuspended in Bambanker serum-free freezing medium (Wako Pure Chemical Industries, Ltd.) and stored frozen before cell viability was assessed as described below.
Viability of AML, esophageal carcinoma, and TF-1 cells was assessed using the ATP-depletion assay CellTiter-Glo® (Promega). Cells were harvested at 1×10^6/mL to 2×10^6 cells/mL with cell numbers determined by trypan blue using the Countess Cell counter (Thermo Scientific) and resuspended in culture media. 3K cells (in […]) were seeded in a 384-well format white, clear bottom microplate (#781098, Greiner) spotted with test compound or vehicle control (DMSO) using an Echo 555 Liquid Handler. […] Luminescence was read on a Tecan Spark® Multimode Microplate Reader and data analyzed using Graph Pad Prism software.

[3] = system: p-ERK1/2 in MOLM-13 AML cells; assay: Phospho-ERK1/2 immunoblot analysis, MOLM-13; type: cell-based; details: #02 3, 10, 30 μM, RMC-4550 1 μM
Experimental: Because SHP2 activity is critical for ERK activation, we used phospho-ERK1/2 (p-ERK1/2) as a more direct readout of SHP2 inhibitor efficacy. […] However, a greater effect of #02 was observed after 24 h treatment. […] This p-ERK rebound in MOLM-13 cells treated with RMC-4550 is reminiscent of previously reported data from human hepatoma Hep3B cells treated with SHP099.
Total protein extracts were prepared in modified RIPA lysis buffer (25 mM Tris-HCl, pH 7.4, 10% glycerol, 0.2% Triton™ X-100, 150 mM NaCl, 2 mM Na3VO4, 1 mM EDTA) containing a protease inhibitor cocktail (Roche Applied Science, Indianapolis, IN). Equal amounts of protein were separated on 4-12% (p-ERK1/2 blots) or 4-20% (SHP2 blots) Bis-Tris gels by SDS-PAGE and transferred to nitrocellulose (p-ERK1/2 blots) or 0.2 μm PVDF (SHP2 blots) membranes. Membranes were blocked in 5% dry milk (Bio-Rad, Hercules, CA) in TBS-Tween 20 (0.1% vol/vol; TBS-T) for 1 h at room temperature. Protein-bound membranes were incubated with indicated primary antibody overnight at 4° C. After washing three times with TBS-T, membranes were incubated for 1 h with horseradish peroxidase-conjugated secondary antibody, then visualized by an ECL Prime detection system (GE Healthcare). Immunoblotting experiments were carried out at least three times and representative images are shown. Densitometric quantitation of immunoblots was performed using Image Studio Lite Software. Changes of phosphorylated ERK1/2 to total ERK1/2 rations are expressed as percentage of the vehicle-treated controls. The following antibodies were used: Phospho-Erk1/2 Ab, Cell Signaling, #9101S; total Erk1/2 Ab, Cell Signaling, #9102S; SHP2 Ab, Bethyl, A301-544A, lot #1; GAPDH (14C10) mAb, Cell Signaling, #2118S, lot #14.

[4] = system: p-ERK1/2 in U-937 AML cells (SHP2 G60R); assay: Phospho-ERK1/2 immunoblot analysis, U-937; type: cell-based; details: U-937, 24 h; #02 1, 3, 10, 30 μM; RMC-4550 1 μM
Excerpt: Oncogenic gain-of-function mutations in SHP2 drive leukemogenesis in a significant number of leukemia patients. However, due to their unique mechanism of action, the existing SHP2 allosteric inhibitors lack activity against the most common SHP2 oncogenic variants. Thus, we tested whether #02 can inhibit the growth of leukemia cells expressing oncogenic SHP2 variants. […] Using the U-937 AML cell line, which harbors a G60R oncogenic mutation in SHP2, we treated cells with either #02 or RMC-4550 at various concentrations, ranging from 0.123 to 30 μM (FIG. 4A). […] We also assessed the effects of #02 and RMC-4550 on ERK1/2 activation in the SHP2 mutant U-937 cell line. Similar to the immunoblot experiments described above, U-937 AML cells were treated with either vehicle control (DMSO), #02 (1, 3, 10, or 30 μM), or with RMC-4550 (1 μM) for 24 h and processed for p-ERK1/2 immunoblot analysis (FIG. 4B).
Total protein extracts were prepared in modified RIPA lysis buffer (25 mM Tris-HCl, pH 7.4, 10% glycerol, 0.2% Triton™ X-100, 150 mM NaCl, 2 mM Na3VO4, 1 mM EDTA) containing a protease inhibitor cocktail (Roche Applied Science, Indianapolis, IN). […] Densitometric quantitation of immunoblots was performed using Image Studio Lite Software. Changes of phosphorylated ERK1/2 to total ERK1/2 rations are expressed as percentage of the vehicle-treated controls. […]

SHP2-E76K, sequence (Q06124 whole entry E76K): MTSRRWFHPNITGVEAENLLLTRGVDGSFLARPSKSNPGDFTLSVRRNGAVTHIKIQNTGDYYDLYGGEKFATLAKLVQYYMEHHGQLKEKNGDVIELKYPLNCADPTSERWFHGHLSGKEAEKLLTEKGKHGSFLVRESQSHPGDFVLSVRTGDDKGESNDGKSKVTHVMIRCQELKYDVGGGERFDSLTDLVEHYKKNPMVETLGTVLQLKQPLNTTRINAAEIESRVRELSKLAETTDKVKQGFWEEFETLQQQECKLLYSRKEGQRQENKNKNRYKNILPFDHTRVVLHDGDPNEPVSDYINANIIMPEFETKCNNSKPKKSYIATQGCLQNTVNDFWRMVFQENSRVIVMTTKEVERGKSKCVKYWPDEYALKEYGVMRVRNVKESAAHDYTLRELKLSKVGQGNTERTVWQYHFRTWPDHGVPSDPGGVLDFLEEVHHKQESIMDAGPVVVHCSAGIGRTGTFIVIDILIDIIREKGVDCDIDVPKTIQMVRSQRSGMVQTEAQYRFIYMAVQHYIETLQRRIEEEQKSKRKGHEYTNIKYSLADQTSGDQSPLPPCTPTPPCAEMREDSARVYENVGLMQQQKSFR

Nc1ccc(NC(=O)c2cc(-c3ccc(/C=C4\Sc5ccccc5C4=O)o3)ccc2O)cc1 [#01, (Z)—N-(4-Aminophenyl)-2-hydroxy-5-(5-((3-oxobenzo[b]thiophen-2(3H)-ylidene)methyl)furan-2-yl)benzamide]
time dependence of inhibition [1]: not time-dependent

O=C(Nc1ccccc1)c1cc(-c2ccc(/C=C3\Sc4ccccc4C3=O)o2)ccc1O [#02, (Z)-2-hydroxy-5-(5-((3-oxobenzo[b]thiophen-2(3H)-ylidene)methyl)furan-2-yl)-N-phenylbenzamide]
effect on growth of patient-derived AML samples [2]: inhibited the growth of both AML patient samples
ERK1/2 activation (p-ERK1/2 levels) ([3]; MOLM-13, 3 h treatment): dose-dependently inhibits ERK1/2 activation
ERK1/2 activation (p-ERK1/2 levels) ([3]; MOLM-13, 24 h treatment): dose-dependently inhibits ERK1/2 activation
ERK1/2 activation (p-ERK1/2 levels) [4]: dose-dependently inhibited ERK1/2 activation
